Results reported in ChEMBL document CHEMBL3885861, “Open TG-GATES”.

Species on record: Rattus norvegicus
Test: Open TG-GATES - Regimen: Single
Type: toxicity, organism-based, Sprague-Dawley
Set-up: regimen Single, gender Male, age 6 weeks
Details: in vivo, ip, 0.003 mg/kg, route intraperitoneal injection, dose 3 ug/Kg, dose level Middle; for APTT / Bas / Eos / Fbg / Hb / Ht / Lym / MCH / MCHC / MCV / Mono / Neu / PT / Plat / RBC / Ret / WBC: tissue Blood; for KIDNEY_L / KIDNEY_R / KIDNEY_TOTAL: tissue Kidney; for LIVER: tissue Liver; for A/G / ALP / ALT / AST / BUN / CRE / Ca / Cl / DBIL / GLC / IP / K / LDH / Na / PL / RALB / TBIL / TC / TG / TP / gamma-GTP: tissue Plasma

Q: What does the source list for H-KGDRLS-OH [TNF-ALPHA]?
A: TERMINAL_BW (3 h): 199 g; APTT (3 h): 17.3 s; Bas (3 h): 0%; Eos (3 h): 0.4%; Fbg (3 h): 265 mg/dL; Hb (3 h): 13 g/dL; Ht (3 h): 39.9%; Lym (3 h): 70.4%; MCH (3 h): 21.1 pg; MCHC (3 h): 32.6%; MCV (3 h): 64.9 fL; Mono (3 h): 4.2%; Neu (3 h): 23%; PT (3 h): 15.9 s; Plat (3 h): 112.9 x10_4/uL; RBC (3 h): 614.6 x10_4/ul; Ret (3 h): 9.2%; WBC (3 h): 88.2 x10_2/uL; KIDNEY_L (3 h): 0.9 g; KIDNEY_R (3 h): 0.9 g; KIDNEY_TOTAL (3 h): 1.8 g; LIVER (3 h): 9.3 g; A/G (3 h): 0.9; ALP (3 h): 1480.4 IU/L; ALT (3 h): 47.6 IU/L; AST (3 h): 75.8 IU/L; BUN (3 h): 10.8 mg/dL; CRE (3 h): 0.2 mg/dL; Ca (3 h): 10.8 mg/dL; Cl (3 h): 104.8 meq/L; DBIL (3 h): 0.01 mg/dL; GLC (3 h): 162.2 mg/dL; IP (3 h): 9.2 mg/dL; K (3 h): 4.3 meq/L; LDH (3 h): 68 IU/L; Na (3 h): 141.6 meq/L; PL (3 h): 137 mg/dL; RALB (3 h): 2.5 g/dL; TBIL (3 h): 0.052 mg/dL; TC (3 h): 73 mg/dL; TG (3 h): 61.8 mg/dL; TP (3 h): 5.3 g/dL; gamma-GTP (3 h): 1.4 IU/L; TERMINAL_BW (6 h): 197.1 g; APTT (6 h): 17.1 s; Bas (6 h): 0%; Eos (6 h): 0.4%; Fbg (6 h): 321.4 mg/dL; Hb (6 h): 13 g/dL; Ht (6 h): 39.7%; Lym (6 h): 63.4%; MCH (6 h): 21.5 pg; MCHC (6 h): 33%; MCV (6 h): 65.1 fL; Mono (6 h): 2.6%; Neu (6 h): 32%; PT (6 h): 15.1 s; Plat (6 h): 110.6 x10_4/uL; RBC (6 h): 610.4 x10_4/ul; Ret (6 h): 8%; WBC (6 h): 81.9 x10_2/uL; KIDNEY_L (6 h): 0.9 g; KIDNEY_R (6 h): 0.9 g; KIDNEY_TOTAL (6 h): 1.8 g; LIVER (6 h): 8.7 g; A/G (6 h): 0.9; ALP (6 h): 1155.6 IU/L; ALT (6 h): 39.8 IU/L; AST (6 h): 65.8 IU/L; BUN (6 h): 8.6 mg/dL; CRE (6 h): 0.2 mg/dL; Ca (6 h): 10.7 mg/dL; Cl (6 h): 105.6 meq/L; DBIL (6 h): 0.008 mg/dL; GLC (6 h): 170.4 mg/dL; IP (6 h): 10.2 mg/dL; K (6 h): 3.7 meq/L; LDH (6 h): 72.8 IU/L; Na (6 h): 143.4 meq/L; PL (6 h): 147.6 mg/dL; RALB (6 h): 2.5 g/dL; TBIL (6 h): 0.06 mg/dL; TC (6 h): 84.4 mg/dL; TG (6 h): 27.2 mg/dL; TP (6 h): 5.4 g/dL; gamma-GTP (6 h): 1 IU/L; TERMINAL_BW (9 h): 194.9 g; APTT (9 h): 17.3 s; Bas (9 h): 0%; Eos (9 h): 0.4%; Fbg (9 h): 380.6 mg/dL; Hb (9 h): 12.9 g/dL; Ht (9 h): 39.7%; Lym (9 h): 66.2%; MCH (9 h): 21.2 pg; MCHC (9 h): 32.4%; MCV (9 h): 65.5 fL; Mono (9 h): 2.6%; Neu (9 h): 29.8%; PT (9 h): 15.4 s; Plat (9 h): 104.9 x10_4/uL; RBC (9 h): 606.6 x10_4/ul; Ret (9 h): 8.3%; WBC (9 h): 75.4 x10_2/uL; KIDNEY_L (9 h): 0.9 g; KIDNEY_R (9 h): 0.9 g; KIDNEY_TOTAL (9 h): 1.8 g; LIVER (9 h): 7.9 g; A/G (9 h): 0.9; ALP (9 h): 1301.4 IU/L; ALT (9 h): 36.4 IU/L; AST (9 h): 71.4 IU/L; BUN (9 h): 7.6 mg/dL; CRE (9 h): 0.2 mg/dL; Ca (9 h): 10.6 mg/dL; Cl (9 h): 105.6 meq/L; DBIL (9 h): 0.004 mg/dL; GLC (9 h): 159 mg/dL; IP (9 h): 9.5 mg/dL; K (9 h): 4 meq/L; LDH (9 h): 46.6 IU/L; Na (9 h): 142 meq/L; PL (9 h): 155.4 mg/dL; RALB (9 h): 2.5 g/dL; TBIL (9 h): 0.062 mg/dL; TC (9 h): 92.6 mg/dL; TG (9 h): 25.2 mg/dL; TP (9 h): 5.3 g/dL; gamma-GTP (9 h): 1 IU/L; TERMINAL_BW (24 h): 211 g; APTT (24 h): 14.6 s; Bas (24 h): 0%; Eos (24 h): 1%; Fbg (24 h): 361.4 mg/dL; Hb (24 h): 12.8 g/dL; Ht (24 h): 39.4%; Lym (24 h): 77.6%; MCH (24 h): 20.7 pg; MCHC (24 h): 32.6%; MCV (24 h): 63.6 fL; Mono (24 h): 3.2%; Neu (24 h): 14.8%; PT (24 h): 15.5 s; Plat (24 h): 115.8 x10_4/uL; RBC (24 h): 619 x10_4/ul; Ret (24 h): 8%; WBC (24 h): 65.2 x10_2/uL; KIDNEY_L (24 h): 0.9 g; KIDNEY_R (24 h): 0.9 g; KIDNEY_TOTAL (24 h): 1.8 g; LIVER (24 h): 10 g; A/G (24 h): 0.9; ALP (24 h): 1666.2 IU/L; ALT (24 h): 42.8 IU/L; AST (24 h): 71.2 IU/L; BUN (24 h): 16.4 mg/dL; CRE (24 h): 0.2 mg/dL; Ca (24 h): 11.1 mg/dL; Cl (24 h): 106.8 meq/L; DBIL (24 h): 0.01 mg/dL; GLC (24 h): 177.8 mg/dL; IP (24 h): 8.5 mg/dL; K (24 h): 4.3 meq/L; LDH (24 h): 74.6 IU/L; Na (24 h): 142.4 meq/L; PL (24 h): 155 mg/dL; RALB (24 h): 2.6 g/dL; TBIL (24 h): 0.042 mg/dL; TC (24 h): 80.4 mg/dL; TG (24 h): 80.8 mg/dL; TP (24 h): 5.7 g/dL; gamma-GTP (24 h): 1 IU/L
